In publication PMC3909100, “Biochemical, Stabilization and Crystallization Studies on a Molecular Chaperone (PaoD) Involved in the Maturation of Molybdoenzymes” (PLoS ONE, 2014):
Values joined by “and” are separate entries in the source; they are usually repeats but may differ in a detail not shown here. Equal entries are not always repeated.

T1: PaoD (Escherichia coli, UniProt P77183)
T1 construct: full length, expressed from plasmid pMN87 in E. coli BL21(DE3), Ni-TED purified (tag not described); dimer in solution
T1 sequence (P77183 1-318): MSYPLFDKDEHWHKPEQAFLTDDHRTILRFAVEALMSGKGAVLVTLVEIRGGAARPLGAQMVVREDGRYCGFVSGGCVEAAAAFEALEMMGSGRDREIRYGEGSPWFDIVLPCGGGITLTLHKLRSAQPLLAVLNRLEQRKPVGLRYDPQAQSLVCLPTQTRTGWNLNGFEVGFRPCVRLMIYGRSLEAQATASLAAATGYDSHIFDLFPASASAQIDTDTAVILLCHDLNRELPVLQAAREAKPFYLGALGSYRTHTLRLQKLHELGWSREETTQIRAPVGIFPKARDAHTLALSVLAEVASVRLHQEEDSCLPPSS

B1: PaoD (natural protein, Escherichia coli, UniProt P77183 1-318, looked up)
chain: T1 sequence (P77183 1-318)
notes: PaoD, XdhC-like molecular chaperone of the periplasmic aldehyde oxidoreductase PaoABC, last gene of the paoABCD operon of Escherichia coli; calculated mass 34.8 kDa; the tag is inferred from the Ni-TED column and imidazole elution; also called molecular chaperone PaoD; E. coli PaoD; source: E. coli BL21(DE3), plasmid pMN87, purified (Ni-TED chromatography)

Experiments:
[1] = biological target: T1, PaoD; assay: ultrafiltration, bound cofactor oxidized to Form A, HPLC fluorescence; assay type: binding; details: 12 µM PaoD, 0-48 µM cofactor, 100 mM Tris-HCl, 300 mM NaCl, pH 7.2, 277 K
[2] = biological target: T1, PaoD; assay: STD-NMR; assay type: binding; details: ca 30 µM PaoD, 3 mM ionic liquid, 50 mM Tris-HCl, 1 mM EDTA, 300 mM NaCl, pH 8.0, 310 K; signals from cation ring protons; weak surface interaction
[3] = biological target: the molecule itself; assay: SEC; freshly purified PaoD on Superdex 75 HR10/30, 50 mM Tris-HCl, 300 mM NaCl, pH 8.0, 283 K, 0.5 mL/min; column calibrated with Bio-Rad standards

Molecule	STD-NMR [2]	other results
Nc1nc2c(c(=O)[nH]1)N[C@H]1C(S)=C(S)[C@@H](COP(=O)(O)O)O[C@H]1N2 [MPT]		ultrafiltration, bound cofactor oxidized to Form A, HPLC fluorescence [1]: The obtained chromatograms showed that Mo-MPT and MPT was bound to PaoD
C[n+]1ccn(CCO)c1 [[C2OHmim]PF6]	aromatic protons of the cation were detected both for [C2OHmim]PF6 and [C4mim]Cl	
CCCC[n+]1ccn(C)c1 [[C4mim]Cl]	aromatic protons of the cation were detected both for [C2OHmim]PF6 and [C4mim]Cl	
B1		stoichiometry N [3]: 2 and 4
